Experimental data: patent publication US5212182A, “Substituted quinolinyl- and naphthalenylbenzamides or benzylamines and related compounds useful as analgesics” (American Home Products Corpooration, priority 1990, dated 1993)

Columns and labels:
[1] = tested on: writhing response induced by bradykinin in mice; assay: Bradykinin-induced Writhing in Mice; format: in vivo, mice (male CD-1)
Procedure: Protocol for Bradykinin-induced Writhing in Mice
The purpose of this assay is to determine the ability of test drugs to inhibit the writhing response induced by bradykinin in mice. This test is a primary in vivo screen for bradykinin antagonist analgesics.
Groups of 10 mice each (male CD-1 mice (14-19 g) from Charles River, Kingston, NY, fasted overnight prior to experiment, but having free access to water) are used. Each mouse receives an intraperitoneal injection of 1 mg/kg PGE2 (0.1 mL/10 g body weight) followed 20 minutes later by an i.p. injection of bradykinin 0.5 mg/kg. The number of writhes per mouse is determined for 2 minutes after bradykinin injection. For a primary screen, drugs are administered orally at 20 mg/kg 1 hour prior to the bradykinin.
The percent inhibition of writhing obtained is calculated as follows: [formula]
Several logarithmically spaced doses are tested and the ED50 (dose which inhibits the writhing response by 50%) is determined by regression methods with inverse prediction.
The test results are reported in the TABLE below under the heading BK Induced Writhing in Mice.

[2] = target: T1, BK2 receptor sites in guinea pig ileum (Cavia porcellus, UniProt O70526); assay: Bradykinin Receptor Binding Assay (3H-BK Binding, G. P. Ileum); parameters: species or system guinea pig (Hartley strain); conditions: 80 pM 3H-BK
T1 construct: The distal portion of the ileum is removed and placed in ice cold homogenization buffer; from tissue; host or cells: distal ileum of adult male Hartley guinea pigs (animals from Charles River), washed membrane homogenate
T1 sequence (O70526 1-372): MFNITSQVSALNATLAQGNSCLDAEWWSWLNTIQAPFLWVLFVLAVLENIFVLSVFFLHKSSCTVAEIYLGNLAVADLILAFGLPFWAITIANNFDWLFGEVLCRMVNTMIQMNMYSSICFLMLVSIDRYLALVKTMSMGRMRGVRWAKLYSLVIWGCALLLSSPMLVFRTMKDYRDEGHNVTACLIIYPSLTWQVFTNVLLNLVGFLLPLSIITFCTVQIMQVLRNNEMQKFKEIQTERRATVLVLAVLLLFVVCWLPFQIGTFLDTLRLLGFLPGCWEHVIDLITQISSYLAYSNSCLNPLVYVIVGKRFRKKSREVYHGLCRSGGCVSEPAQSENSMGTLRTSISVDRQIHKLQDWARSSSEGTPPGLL
Procedure: Protocol for Bradykinin Receptor Binding Assay
The purpose of this assay is to identify compounds which compete specifically with tritiated bradykinin (^3 H--BK) for BK2 receptor sites in guinea pig ileum.
The guinea pig (adult male Hartley strain, 350-500 g, Charles River) is euthanized by stunning followed by decapitation. The distal portion of the ileum is removed and placed in ice cold homogenization buffer (25 mM N-[tris(hydroxymethyl)methyl]-2-aminoethanesulfonic acid (TES), 1 mM 1,10-phenanthroline, adjusted to pH 6.8 with NH4 OH). The contents of the ileal lumen are rinsed out with cold homogenization buffer. The tissue is cut into small pieces and homogenized in 20 volumes of homogenization buffer.
The homogenate is filtered through a surgical gauze sponge and centrifuged at 50,000×g for 20 minutes at 4° C. The supernatant fluid is discarded and the homogenization and centrifugation procedure is repeated. After discarding the supernatant fluid, the final pellet is resuspended in 40 volumes of assay buffer (25 mM TES, pH=6.8, 1 mM 1,10-phenanthroline, 1 mM (2RS, 3RS)-1,4-dimercapto-2,3-butanediol (Cleland's reagent), 2 μM captopril, 140 μg/mL bacitracin and 0.1% bovine serum albumin (BSA)). The homogenate is filtered once more through a surgical gauze sponge and kept on ice until use.
The assay is performed using only polypropylene pipet tips and polypropylene test tubes. Each tube receives 100 μL of 800 pM ^3 H--BK, 100 μL of the test compound solution or vehicle (TES assay buffer), and 100 μL of 25 mg/mL tissue homogenate in a total volume of 1 mL. The final concentration of ^3 H--BK is 80 pM. The final tissue concentration is 2.5 mg/mL. Compounds are screened at 100 μM or 10 μM. Nonspecific binding is determined in the presence of 1 μM unlabeled bradykinin. All determinations are made in triplicate. Three 100 μL aliquots of the 800 pM ^3 H--BK working solution are added directly to scintillation vials to determine the total added radioactivity.
The tubes are incubated for 90 minutes at 25° C. while being gently agitated on an orbital shaker. Bound ligand is separated from free ligand, using Whatman GF/B glass fiber filters (pretreated with 0.1% aqueous polyethyleneimine made neutral with HCl). Assay tubes and glass fiber filters are rinsed three times with 3 mL of cold physiological saline.
The filter discs are transferred to 20 mL scintillation vials. Ten mL of aqueous sample LSC cocktail (Aquassure, New England Nuclear) is added to each vial. After capping, the vials are agitated for 5 minutes on an orbital shaker. The samples are counted for ten minutes in a refrigerated liquid scintillation counter.
The following values are obtained:
Bns : Nonspecific binding
Bx : Total binding in the presence of the test compound
C: Control specific binding C=Bt -Bns
D: Specific binding in the presence of the test compound D=Bx -Bns
Percent of Control: D/C×100
Percent Inhibition: (1-D/C)×100
After calculation of Percent of Control for each dilution, the values are analyzed and the IC50 with its 95% confidence limits is determined on a Hewlett Packard 9816 computer using the program "PS-NONLIN" (generalizednon-linear regression with inverse prediction and graphics).
The test results are reported in the TABLE below under the heading 3H--BK Binding, G. P. Ileum.

[3] = tested on: bradykinin-induced hyperalgesia (pain threshold) in rats; assay: Bradykinin-induced Hyperalgesia in Rats; format: in vivo, rats (female Sprague Dawley); conditions: 100 mg/kg p.o.
Procedure: Protocol for Bradykinin-induced Hyperalgesia in Rats
The purpose of this assay is to evaluate analgesic activity of bradykinin antagonists in an inflammatory pain model in rats.
Animals (female Sprague Dawley rats (Charles River, Kingston, NY) 80-115 gms) are fasted overnight, with water given ad lib, if the compounds are to be administered orally. Ten rats are used per test group and six per normal group.
Test compounds are suspended in 0.5% Tween 80 in distilled water, and are administered orally 1 hour (or i.p. 5 minutes) prior to the injection of bradykinin.
The animals are randomized prior to drug administration in order to make the study blind. Bradykinin is injected, as the phlogistic agent, into the subplantar region of the right hindpaw of the rats, in a 0.01 mg/0.1 mL saline solution. The pain threshold is measured 1 minute later using a modification of the Randall-Selitto method, [Randall, et al., Archives International Pharmacodynamics, VIII N4, p 409-419 (1957)].
Animals are placed in a horizontal position with a hindpaw hanging down on the apparatus. The teflon point is placed on the foot pad and a steady pressure is applied, using a foot pedal. The endpoint is determined when the rat emits a squeak or forcefully attempts to remove its paw from the apparatus. […]
Drug effects are expressed as a percent change in pain threshold from bradykinin control values. […]

Compound	inhibition at 10 µM [2] [%]	other results
O=C(NC1CCN(Cc2ccccc2)CC1)c1ccc(OCc2ccnc3ccccc23)cc1 [Example 1, N-[1-(Phenylmethyl)-4-piperidinyl]-4-(4-quinolinylmethoxy)benzamide]		BK Induced Writhing in Mice, % inhibition ([1]; 30 mg/kg i.p.): 40.0%; BK Induced Writhing in Mice, % inhibition ([1]; 300 mg/kg p.o.): 52.0%; IC50 [2]: 9.1 µM; inhibition at 100 µM [2]: 98.8%; increase of BK induced pain threshold in rats [3]: 44.8%
O=C(NC1CCN(Cc2ccccc2)CC1)c1ccc(OCc2ccc3ccccc3n2)cc1 [Example 2, N-[1-(Phenylmethyl)-4-piperidinyl]-4-(2-quinolinylmethoxy)benzamide]		BK Induced Writhing in Mice, % inhibition ([1]; 30 mg/kg i.p.): 40.0%; BK Induced Writhing in Mice, % inhibition ([1]; 100 mg/kg p.o.): 32.0%; BK Induced Writhing in Mice, % inhibition ([1]; 200 mg/kg p.o.): 22.5%; IC50 [2]: 33.6 µM; inhibition at 100 µM [2]: 93.8%
O=C(NC1CCN(Cc2ccccc2)CC1)c1cccc(OCc2ccnc3ccccc23)c1 [Example 5, N-[1-(Phenylmethyl)-4-piperidinyl]-3-(4-quinolinylmethoxy)benzamide]	63.8	BK Induced Writhing in Mice, % inhibition ([1]; 30 mg/kg i.p.): 31.0%; BK Induced Writhing in Mice, % inhibition ([1]; 200 mg/kg p.o.): 22.0%; IC50 [2]: 7.3 µM
O=C(NC1CCN(Cc2ccccc2)CC1)c1ccccc1OCc1ccnc2ccccc12 [Example 6, N-[1-(Phenylmethyl)-4-piperidinyl]-2-(4-quinolinylmethoxy)benzamide]	17.3	
O=C(NC1CCN(Cc2ccccc2)CC1)c1ccc(/C=C/c2ccnc3ccccc23)cc1 [Example 12, (E)-N-[1-(Phenylmethyl)-4-piperidinyl]-4-[2-(4-quinolinyl)ethenyl]benzamide]	78.7	BK Induced Writhing in Mice, % inhibition ([1]; 30 mg/kg i.p.): 10.0%
O=C(NC1CCN(Cc2ccccc2)CC1)c1ccc(/C=C\c2ccnc3ccccc23)cc1 [Example 13, (Z)-N-[1-(Phenylmethyl)-4-piperidinyl]-4-[2-(4-quinolinyl)ethenyl]benzamide]	35.8	
O=C(NC1CCN(Cc2ccccc2)CC1)c1ccc(OCc2cc[n+]([O-])c3ccccc23)cc1 [Example 14, N-[1-(Phenylmethyl)-4-piperidinyl]-4-(4-quinolinylmethoxy)benzamide N-Oxide]	30.2	
CCN(CC)C(=O)c1ccc(CN2CCC(NC(=O)c3ccc(OCc4ccnc5ccccc45)cc3)CC2)cc1 [Example 15, N-[1-[[4-[(Diethylamino)carbonyl]phenyl]methyl]-4-piperidinyl]-4-(4-quinolinylmethoxy)benzamide]	30.2	
c1ccc(CN2CCC(NCc3ccc(OCc4ccnc5ccccc45)cc3)CC2)cc1 [Example 16, 1-(Phenylmethyl)-N-[[4-(4-quinolinylmethoxy)phenyl]methyl]-4-piperidinamine]	27.4	
CCCC(=O)N(Cc1ccc(OCc2ccnc3ccccc23)cc1)C1CCN(Cc2ccccc2)CC1 [Example 17, N-[1-(Phenylmethyl)-4-piperidinyl]-N-[[4-(4-quinolinylmethoxy)phenyl]methyl]butanamide]	25.3	
O=C(NC1CCN(Cc2ccccc2)CC1)c1ccc(NCc2ccnc3ccccc23)cc1 [Example 18, N-[1-(Phenylmethyl)-4-piperidinyl]-4-[(4-quinolinylmethyl)amino]benzamide]	8.1	

Now from value to molecule, other results behind:

inhibition at 10 µM [2] [%]	Compound	other results
15.2	CCCCN1CCC(NC(=O)c2ccc(OCc3ccnc4ccccc34)cc2)CC1 [Example 3, N-(1-Butyl-4-piperidinyl)-4-(4-quinolinylmethoxy)benzamide]	
10.4	CCCCN1CCC(NC(=O)c2ccc(OCc3ccc4ccccc4n3)cc2)CC1 [Example 4, N-(1-Butyl-4-piperidinyl)-4-(2-quinolinylmethoxy)benzamide]	
43.2	O=C(NC1CCN(Cc2ccccc2)CC1)c1cccc(OCc2ccc3ccccc3n2)c1 [Example 7, N-[1-(Phenylmethyl)-4-piperidinyl]-3-(2-quinolinylmethoxy)benzamide]	
8.4	O=C(NC1CCN(Cc2ccccc2)CC1)c1ccccc1OCc1ccc2ccccc2n1 [Example 8, N-[1-(Phenylmethyl)-4-piperidinyl]-2-(2-quinolinylmethoxy)benzamide]	
21.4	CCCCN1CCC(NC(=O)c2cccc(OCc3ccnc4ccccc34)c2)CC1 [Example 9, N-(1-Butyl-4-piperidinyl)-3-(4-quinolinylmethoxy)benzamide]	
8.6	O=C(NC1CCN(Cc2ccccc2)CC1)c1ccc(OCc2cccc3ccccc23)cc1 [Example 10, N-[1-(Phenylmethyl)-4-piperidinyl]-4-(1-naphthalenylmethoxy)benzamide]	
11.1	CCCCN1CCC(NC(=O)c2ccc(OCc3cccc4ccccc34)cc2)CC1 [Example 11, N-(1-Butyl-4-piperidinyl)-4-(1-naphthalenylmethoxy)benzamide]	
32.8	CCCCN1CCC(NC(=O)c2ccc(NCc3ccnc4ccccc34)cc2)CC1 [Example 19, N-(1-Butyl-4-piperidinyl)-4-[(4-quinolinylmethyl)amino]benzamide]	
